“And” between values parts separate entries of the source, which are not always exact repeats. Identical values can stand only once. Inconclusive results and toxic doses are left out. Cut-off read from the data, not from the text of the source: active = T/C of 150% or more; inactive = T/C below 125%.
System: L1210 leukemia ip in BDF1 mice, survival T/C
Test: NCI In Vivo Anticancer Drug Screen. Data for tumor model L1210 Leukemia (intraperitoneal) in B6D2F1 (BDF1) mice
Conditions: endpoint: mean survival time, higher = longer survival
Procedure, shortened: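 Antitumor effect is assessed in tumor-bearing animals. Survival in the compound arm is compared with a vehicle-dosed control arm and expressed as their quotient.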

[1] = dose: 100.0 mg/kg/injection, schedule: Q04DX002 (ip), vehicle: Klucel (hydroxypropylcellulose) (HPC)
[2] = dose: 200.0 mg/kg/injection, schedule: Q04DX002 (ip), vehicle: Klucel (hydroxypropylcellulose) (HPC)
[3] = dose: 400.0 mg/kg/injection, schedule: Q04DX002 (ip), vehicle: Klucel (hydroxypropylcellulose) (HPC)
[4] = dose: 100.0 mg/kg/injection, schedule: Q01DX009 (ip), vehicle: Klucel (hydroxypropylcellulose) (HPC)
[5] = dose: 200.0 mg/kg/injection, schedule: Q01DX009 (ip), vehicle: Klucel (hydroxypropylcellulose) (HPC)
[6] = dose: 400.0 mg/kg/injection, schedule: Q01DX009 (ip), vehicle: Klucel (hydroxypropylcellulose) (HPC)
[7] = dose: 100.0 mg/kg/injection, schedule: Q01DX001 (ip), vehicle: saline
[8] = dose: 200.0 mg/kg/injection, schedule: Q01DX001 (ip), vehicle: saline
[9] = dose: 400.0 mg/kg/injection, schedule: Q01DX001 (ip), vehicle: saline
[10] = dose: 100.0 mg/kg/injection, schedule: Q01DX009 (ip), vehicle: saline with Tween-80
[11] = dose: 200.0 mg/kg/injection, schedule: Q01DX009 (ip), vehicle: saline with Tween-80
[12] = dose: 100.0 mg/kg/injection, schedule: Q01DX001 (ip), vehicle: carboxymethylcellulose (CMC)
[13] = dose: 200.0 mg/kg/injection, schedule: Q01DX001 (ip), vehicle: carboxymethylcellulose (CMC)
[14] = dose: 400.0 mg/kg/injection, schedule: Q01DX001 (ip), vehicle: carboxymethylcellulose (CMC)

Measured: T/C

CCNCCNCC(Cc1ccccc1)c1ccccc1 (stereo not drawn)
inactive: dose: 25.0 mg/kg/injection, schedule: Q04DX002 (ip), vehicle: saline 86 % of control | dose: 50.0 mg/kg/injection, schedule: Q04DX002 (ip), vehicle: saline 105 % of control | dose: 100.0 mg/kg/injection, schedule: Q04DX002 (ip), vehicle: saline 93 % of control and 92 % of control

CC(=O)Nc1ccc(F)c(Cl)c1F
inactive: [1] 121 % of control | [2] 105 % of control | [3] 102 % of control

CC(=O)CC(C)=Nc1cccc(Cl)c1
inactive: dose: 100.0 mg/kg/injection, schedule: Q01DX001 (ip), vehicle: Klucel (hydroxypropylcellulose) (HPC) 106 % of control | [4] 92 % of control | dose: 200.0 mg/kg/injection, schedule: Q01DX001 (ip), vehicle: Klucel (hydroxypropylcellulose) (HPC) 103 % of control | [5] 108 % of control | dose: 400.0 mg/kg/injection, schedule: Q01DX001 (ip), vehicle: Klucel (hydroxypropylcellulose) (HPC) 100 % of control | [6] 94 % of control

CSCCNC(=O)C(=O)NCCSC
inactive: dose: 100.0 mg/kg/injection, schedule: Q04DX002 (ip), vehicle: other 95 % of control | dose: 200.0 mg/kg/injection, schedule: Q04DX002 (ip), vehicle: other 88 % of control | dose: 400.0 mg/kg/injection, schedule: Q04DX002 (ip), vehicle: other 98 % of control

O=S(=O)(O)CC1(CS(=O)(=O)O)COC1
inactive: [7] 95 % of control | dose: 100.0 mg/kg/injection, schedule: Q01DX009 (ip), vehicle: acetone 118 % of control | [8] 95 % of control | dose: 200.0 mg/kg/injection, schedule: Q01DX009 (ip), vehicle: acetone 106 % of control | [9] 96 % of control | dose: 400.0 mg/kg/injection, schedule: Q01DX009 (ip), vehicle: acetone 95 % of control

O=C(O)COc1ccccc1O
inactive: [10] 101 % of control | [11] 101 % of control

Cc1ccc(S(=O)(=O)N(C)c2ccc(C#N)c3ccccc23)cc1
inactive: dose: 100.0 mg/kg/injection, schedule: Q04DX003 (ip), vehicle: saline with Tween-80 97 % of control | dose: 200.0 mg/kg/injection, schedule: Q04DX003 (ip), vehicle: saline with Tween-80 89 % of control | dose: 400.0 mg/kg/injection, schedule: Q04DX003 (ip), vehicle: saline with Tween-80 90 % of control

CCOC(=O)c1ccc(N=Cc2cc(Cl)cc(Cl)c2O)cc1
inactive: [7] 95 % of control | [8] 100 % of control | [9] 93 % of control

CCCCC(CC)CC1C(=O)NC(=S)NC1=O (stereo not drawn)
inactive: dose: 75.0 mg/kg/injection, schedule: Q01DX001 (ip), vehicle: saline 97 % of control | dose: 150.0 mg/kg/injection, schedule: Q01DX001 (ip), vehicle: saline 98 % of control

Cc1ccc(C(CS(=O)(=O)c2ccc(C)cc2)c2ccccc2)cc1 (stereo not drawn)
inactive: [7] 92 % of control | [8] 103 % of control | [9] 94 % of control

Cc1ccc(S(=O)(=O)OCC2C(COS(=O)(=O)c3ccc(C)cc3)C3CCC2C3C(c2ccccc2)c2ccccc2)cc1 (stereo not drawn)
inactive: [4] 103 % of control | dose: 100.0 mg/kg/injection, schedule: Q04DX003 (ip), vehicle: Klucel (hydroxypropylcellulose) (HPC) 98 % of control | [5] 94 % of control | dose: 200.0 mg/kg/injection, schedule: Q04DX003 (ip), vehicle: Klucel (hydroxypropylcellulose) (HPC) 102 % of control | [6] 111 % of control | dose: 400.0 mg/kg/injection, schedule: Q04DX003 (ip), vehicle: Klucel (hydroxypropylcellulose) (HPC) 96 % of control

COC(=O)C1=C(C(=O)OC)C2CC1C1OC21 (stereo not drawn)
inactive: dose: 100.0 mg/kg/injection, schedule: Q01DX009 (ip), vehicle: saline 96 % of control | dose: 200.0 mg/kg/injection, schedule: Q01DX009 (ip), vehicle: saline 98 % of control

Clc1ccc(/C=N\c2nn[nH]n2)c(Cl)c1 (tested in a mixture with another compound)
inactive: dose: 100.0 mg/kg/injection, schedule: Q04DX003 (ip), vehicle: saline 89 % of control | dose: 200.0 mg/kg/injection, schedule: Q04DX003 (ip), vehicle: saline 89 % of control | dose: 400.0 mg/kg/injection, schedule: Q04DX003 (ip), vehicle: saline 98 % of control

Cc1cc(=O)[nH]c2ccc(Cc3ccc(Cl)cc3)cc12
inactive: [7] 97 % of control | [8] 98 % of control | [9] 95 % of control

COC(=O)Cc1cccc(=O)c(O)c1C(=O)OC
inactive: dose: 50.0 mg/kg/injection, schedule: Q01DX001 (ip), vehicle: carboxymethylcellulose (CMC) 102 % of control | [12] 102 % of control | [13] 104 % of control | [14] 102 % of control

COc1cccc(N(CCO)CCO)c1OC
inactive: dose: 3.75 mg/kg/injection, schedule: Q01DX Z (ip), vehicle: saline 93 % of control | dose: 7.5 mg/kg/injection, schedule: Q01DX Z (ip), vehicle: saline 93 % of control | dose: 15.5 mg/kg/injection, schedule: Q01DX Z (ip), vehicle: saline 97 % of control | dose: 31.0 mg/kg/injection, schedule: Q01DX Z (ip), vehicle: saline 97 % of control | dose: 62.5 mg/kg/injection, schedule: Q01DX Z (ip), vehicle: saline 96 % of control | dose: 125.0 mg/kg/injection, schedule: Q01DX Z (ip), vehicle: saline 101 % of control | dose: 250.0 mg/kg/injection, schedule: Q01DX Z (ip), vehicle: saline 97 % of control | dose: 500.0 mg/kg/injection, schedule: Q01DX Z (ip), vehicle: saline 101 % of control

COC(=O)c1ccccc1C=O
inactive: dose: 100.0 mg/kg/injection, schedule: Q01DX001 (ip), vehicle: saline with Tween-80 102 % of control | dose: 200.0 mg/kg/injection, schedule: Q01DX001 (ip), vehicle: saline with Tween-80 107 % of control

NC(Cc1cc(O)c(O)c(S(=O)(=O)c2ccccc2)c1)C(=O)O (stereo not drawn)
inactive: dose: 87.5 mg/kg/injection, schedule: Q01DX009 (ip), vehicle: saline 98 % of control | dose: 175.0 mg/kg/injection, schedule: Q01DX009 (ip), vehicle: saline 96 % of control | dose: 350.0 mg/kg/injection, schedule: Q01DX009 (ip), vehicle: saline 107 % of control

O=[N+]([O-])c1cc(Cl)cc2c1-c1ccc(Cl)cc1/C2=N\O
inactive: [12] 103 % of control | [13] 103 % of control | [14] 103 % of control

CS(=O)(=O)NC(=O)C[P+](c1ccccc1)(c1ccccc1)c1ccccc1
inactive: [7] 96 % of control | [8] 89 % of control | [9] 98 % of control

CC(C)(C)c1cc(O)c(C(C)(C)C)cc1O
inactive: dose: 50.0 mg/kg/injection, schedule: Q01DX001 (ip), vehicle: saline 90 % of control | [7] 96 % of control | dose: 100.0 mg/kg/injection, schedule: Q04DX002 (ip), vehicle: gum acacia 106 % of control | [8] 94 % of control | dose: 200.0 mg/kg/injection, schedule: Q04DX002 (ip), vehicle: gum acacia 106 % of control | [9] 98 % of control | dose: 400.0 mg/kg/injection, schedule: Q04DX002 (ip), vehicle: gum acacia 108 % of control

OCc1nc2cc(Cl)c(Cl)cc2[nH]1
inactive: [7] 93 % of control | [8] 96 % of control | [9] 102 % of control

C[N+](C)(C)CC(O)COc1ccc(Cl)cc1Cl (stereo not drawn)
inactive: dose: 25.0 mg/kg/injection, schedule: Q04DX002 (ip), vehicle: Klucel (hydroxypropylcellulose) (HPC) 97 % of control | dose: 50.0 mg/kg/injection, schedule: Q04DX002 (ip), vehicle: Klucel (hydroxypropylcellulose) (HPC) 101 % of control | [1] 94 % of control and 89 % of control

C#CCn1c2ccccc2c2ccccc21
inactive: [7] 97 % of control | [10] 95 % of control | [8] 103 % of control | [11] 101 % of control | [9] 103 % of control | dose: 400.0 mg/kg/injection, schedule: Q01DX009 (ip), vehicle: saline with Tween-80 96 % of control

O=C1Nc2ccc(Br)cc2C1(O)Cc1cccc([N+](=O)[O-])c1 (stereo not drawn)
inactive: dose: 50.0 mg/kg/injection, schedule: Q01DX009 (ip), vehicle: saline with Tween-80 90 % of control | [10] 93 % of control | dose: 100.0 mg/kg/injection, schedule: Q04DX002 (ip), vehicle: saline with Tween-80 91 % of control | [11] 90 % of control | dose: 200.0 mg/kg/injection, schedule: Q04DX002 (ip), vehicle: saline with Tween-80 91 % of control

CCCCCCCCCCCC(=O)NC(=S)Nc1cccc(O)c1
inactive: [1] 104 % of control | [2] 87 % of control | [3] 104 % of control

Reference: PubChem BioAssay AID248 (DTP/NCI, 2004)
